The source of these data is patent publication US11253604B2, “Conjugate of methotrexate and peptide” (CAREGEN CO., LTD., priority 2017, dated 2022).

Each structure is given as a SMILES string.

The subject of one data set is NIH3T3 fibroblast lines. Description: Cytotoxicity test: cell proliferation by MTT analysis (Ez-cytox kit). As to conditions: NIH3T3 fibroblasts, 3.9 to 500 μM, 48 hours, vs non-treated negative control.
The test system of a further data set is HaCaT keratinocyte lines. The data set is described as above. As to conditions: HaCaT keratinocytes, 3.9 to 500 μM, 48 hours, vs non-treated negative control.

In the case of `CN(Cc1cnc2nc(N)nc(N)c2n1)c1ccc(C(=O)N[C@@H](CCC(=O)O)C(=O)O)cc1` [methotrexate, Methotrexate], the “cytotoxicity (inhibition of cell proliferation)” value in the data set on NIH3T3 fibroblast lines and in the data set on HaCaT keratinocyte lines was “exhibited a significant degree of cytotoxicity” each time.
